Measurements published in US20110305637A1, “RADIOLABELLED PDE10 LIGANDS” (Janssen Pharmaceutica N.V., priority 2009, published 2011).

How the values were obtained:
rat PDE10A2 = biological target: T1, rat PDE10A2 (Rattus norvegicus, UniProt Q9QYJ6); experiment: rat PDE10A2-cAMP inhibition; type: biochemical; details: read-out: pIC50, rat PDE10A2-cAMP inhibition (converted)
T1 sequence (Q9QYJ6 1-794): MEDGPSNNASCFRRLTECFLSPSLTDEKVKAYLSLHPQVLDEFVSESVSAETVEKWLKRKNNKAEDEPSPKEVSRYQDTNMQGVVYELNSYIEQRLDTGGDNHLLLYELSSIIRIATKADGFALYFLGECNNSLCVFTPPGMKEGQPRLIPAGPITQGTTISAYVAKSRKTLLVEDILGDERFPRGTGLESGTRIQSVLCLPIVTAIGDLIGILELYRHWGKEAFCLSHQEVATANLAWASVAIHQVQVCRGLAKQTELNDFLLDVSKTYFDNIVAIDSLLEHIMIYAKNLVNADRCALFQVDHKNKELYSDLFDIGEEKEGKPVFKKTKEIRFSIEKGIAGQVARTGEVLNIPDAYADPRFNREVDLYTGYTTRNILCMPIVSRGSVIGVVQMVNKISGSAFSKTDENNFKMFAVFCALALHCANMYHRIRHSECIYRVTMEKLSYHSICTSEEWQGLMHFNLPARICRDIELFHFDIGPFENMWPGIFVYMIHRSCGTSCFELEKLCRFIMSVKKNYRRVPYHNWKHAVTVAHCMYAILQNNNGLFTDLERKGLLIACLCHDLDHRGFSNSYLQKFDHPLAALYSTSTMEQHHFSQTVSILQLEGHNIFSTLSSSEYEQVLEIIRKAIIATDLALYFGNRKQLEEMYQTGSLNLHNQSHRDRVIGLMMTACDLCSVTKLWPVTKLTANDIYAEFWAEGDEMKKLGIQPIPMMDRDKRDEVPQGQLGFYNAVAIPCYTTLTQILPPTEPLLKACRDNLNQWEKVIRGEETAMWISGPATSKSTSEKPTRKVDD
Procedure: The affinity of compounds Ia and Ib was determined by measuring rat PDE10A2-cAMP inhibition: […]

PDE8A1 = PDE8A1 (Homo sapiens, UniProt O60658); experiment: selectivity over PDE8A1; type: biochemical
Chain of PDE8A1 (O60658 whole entry, species assumed): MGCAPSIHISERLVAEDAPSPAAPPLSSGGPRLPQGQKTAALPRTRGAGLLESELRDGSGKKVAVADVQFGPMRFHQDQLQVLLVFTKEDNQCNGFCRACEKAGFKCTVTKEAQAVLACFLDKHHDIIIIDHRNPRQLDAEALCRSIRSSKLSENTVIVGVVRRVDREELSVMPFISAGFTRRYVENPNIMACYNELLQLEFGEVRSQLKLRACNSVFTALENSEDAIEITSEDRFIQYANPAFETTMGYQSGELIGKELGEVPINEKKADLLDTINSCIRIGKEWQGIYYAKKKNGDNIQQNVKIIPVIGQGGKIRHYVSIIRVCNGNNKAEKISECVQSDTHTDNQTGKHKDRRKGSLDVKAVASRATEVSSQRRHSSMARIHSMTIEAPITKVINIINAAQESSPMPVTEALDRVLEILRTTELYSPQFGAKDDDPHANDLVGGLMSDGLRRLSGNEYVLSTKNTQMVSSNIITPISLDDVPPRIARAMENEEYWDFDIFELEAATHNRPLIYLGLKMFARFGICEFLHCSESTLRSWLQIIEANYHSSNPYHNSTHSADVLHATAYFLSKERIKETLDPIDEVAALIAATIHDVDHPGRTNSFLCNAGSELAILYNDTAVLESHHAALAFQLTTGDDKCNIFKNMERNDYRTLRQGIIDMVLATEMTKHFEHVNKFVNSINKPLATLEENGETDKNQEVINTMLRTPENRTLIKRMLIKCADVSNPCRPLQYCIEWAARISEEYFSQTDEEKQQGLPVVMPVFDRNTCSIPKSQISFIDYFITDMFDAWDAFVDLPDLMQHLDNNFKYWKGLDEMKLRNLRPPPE

Row | SMILES | IC50 (rat PDE10A2) [nM] | selective over PDE8A1 (PDE8A1) [fold] | melting point [°C]
1 | FCCn1cc(-c2ccncc2)c(-c2ccc(OCc3ccc4ccccc4n3)cc2)n1 [Ia, 2-{4-[1-(2-Fluoroethyl)-4-pyridin-4-yl-1H-1-pyrazol-3-yl]-phenoxymethyl}-quinoline] | 0.479 | – | –
2 | FCCCn1cc(-c2ccncc2)c(-c2ccc(OCc3ccc4ccccc4n3)cc2)n1 [Ib, 2-{4-[1-(3-Fluoropropyl)-4-pyridin-4-yl-1H-1-pyrazol-3-yl]-phenoxymethyl}-quinoline] | 0.692 | > 200 | 101.9
